Earlier results on 2 molecules are cited in patent US10688050B1 (Synthon B.V., priority 2018, dated 2020).

Each structure is given as a SMILES string. Read-outs that look alike come from different tables or passages of the source.

Experiment in data set [1]: not given
The source holds these as a separate data set.

For the molecule `C=CC(=O)N1CCC[C@@H](n2nc(-c3ccc(Oc4ccccc4)cc3)c3c(N)ncnc32)C1` [Ibrutinib, 1-[(3R)-3-[4-amino-3-(4-phenoxyphenyl)-1H-pyrazolo[3,4-d]pyrimidin-1-yl]piperidin-1-yl]prop-2-en-1-one], the “solubility (BCS)” value is “low”.
`C=CC(=O)N1CCC[C@@H](n2nc(-c3ccc(Oc4ccccc4)cc3)c3c(N)ncnc32)C1` [ibrutinib form A]: the solubility entry in data set [1] (pH 1.2) was “slightly soluble”; in data set [1] (pH range from 3 to 8) it was “practically insoluble”.
